Test results taken from patent US5736376A, “Recombinant endothelin converting enzyme-2 and its use in ECE inhibitor screening” (Board of Regents, The University of Texas System, priority 1995, dated 1998).
Like-named read-outs stand apart in the source and are kept apart here.

Assays:
ECE-2 [1] = target: T1, ECE-2 (Bos taurus, UniProt P0DPE2); test: Double-transfection live cell assay: mature ET-1 secretion by CHO/ECE-2 cells transfected with preproET-1 cDNA; type: cell-based, bovine; settings: production of mature ET-1; 12 h; ECE-2-preproET-1 double transfected cells; read-out: apparent IC50, live cell assay, CHO/ECE-2
T1 construct: solubilized crude membranes or live cells
Experimental: Production of mature ET-1 by CHO/ECE-2 cells transiently transfected with preproET-1 cDNA: Cleavage of endogenously produced big ET-1. Doubly transfected cells were cultured for 12 h in the absence or presence of the designated concentrations of ECE inhibitors, and mature ET-1 in the conditioned medium was determined. Negative control studies with parental CHO cells are shown by dashed lines.
CHO/ECE-2 cells and untransfected CHO cells were transiently transfected in parallel with a preproET-1 construct, and mature ET-1 secreted from these cells into the medium was determined by EIA.
CHO-K1 cells were cultured as described (Xu et al., 1994). Since many batches of tissue culture-grade trypsin preparations contained high levels of metalloprotease contaminants with an ECE-like activity, a highly purified crystallized preparation of trypsin (Sigma, Catalog No. T7418) was dissolved in phosphate-buffered saline at 0.013% (w/v) and used for all trypsinization procedures. […] Twelve hours after the transient transfection, cells were refed with fresh medium with or without ECE inhibitors. The medium was conditioned for an additional 12 h and directly subjected to enzyme immunoassay (EIA) for mature ET-1 (Suzuki et al., 1989).

ECE-2 [2] = target: T1, ECE-2; test: Protease inhibitor assay of ECE-2, solubilized CHO/ECE-2 membranes, big ET-1 conversion, pH 5.5; type: biochemical, bovine; settings: in vitro (test tube), pH 5.5
Experimental: In all subsequent studies, ECE-2 assays were performed at pH 5.5.
Solubilized crude membranes were prepared in parallel from CHO/ECE-2 and CHO/ECE-1 cells as described (Xu et al., 1994). For protease inhibitor studies, membranes were prepared without protease inhibitors. Standard reaction mixtures for the ECE-2 assay (50 μl) contained 0.1M 2-[N-morpholino]ethanesulfonic acid (MES) buffer (pH 5.5), 0.5M NaCl, 0.1 μM human big ET-1 and an enzyme fraction. […] For the inhibitor studies, the reactions were preincubated at 37° C. with protease inhibitor or vehicle for 15 min. Reactions were started by the addition of substrate, and incubated at 37° C. for 30 min in siliconized 0.5-ml microcentrifuge tubes. […] The mixture was then directly assayed for mature ET-1 as described (Suzuki et al., 1989). Duplicate assay wells were used for each enzyme reaction.

[3] = test system: this family of metalloproteases; settings: Opgenorth et al., 1992; cited from earlier work
ECE-1 [4] = target: T2, ECE-1 (Bos taurus, UniProt P42891); test: Protease inhibitor assay of ECE-1, solubilized CHO/ECE-1 membranes, big ET-1 conversion, pH 6.8; type: biochemical, bovine; settings: sensitivity to protease inhibitors, Table 2
T2 construct: made in house
T2 sequence (P42891 1-754): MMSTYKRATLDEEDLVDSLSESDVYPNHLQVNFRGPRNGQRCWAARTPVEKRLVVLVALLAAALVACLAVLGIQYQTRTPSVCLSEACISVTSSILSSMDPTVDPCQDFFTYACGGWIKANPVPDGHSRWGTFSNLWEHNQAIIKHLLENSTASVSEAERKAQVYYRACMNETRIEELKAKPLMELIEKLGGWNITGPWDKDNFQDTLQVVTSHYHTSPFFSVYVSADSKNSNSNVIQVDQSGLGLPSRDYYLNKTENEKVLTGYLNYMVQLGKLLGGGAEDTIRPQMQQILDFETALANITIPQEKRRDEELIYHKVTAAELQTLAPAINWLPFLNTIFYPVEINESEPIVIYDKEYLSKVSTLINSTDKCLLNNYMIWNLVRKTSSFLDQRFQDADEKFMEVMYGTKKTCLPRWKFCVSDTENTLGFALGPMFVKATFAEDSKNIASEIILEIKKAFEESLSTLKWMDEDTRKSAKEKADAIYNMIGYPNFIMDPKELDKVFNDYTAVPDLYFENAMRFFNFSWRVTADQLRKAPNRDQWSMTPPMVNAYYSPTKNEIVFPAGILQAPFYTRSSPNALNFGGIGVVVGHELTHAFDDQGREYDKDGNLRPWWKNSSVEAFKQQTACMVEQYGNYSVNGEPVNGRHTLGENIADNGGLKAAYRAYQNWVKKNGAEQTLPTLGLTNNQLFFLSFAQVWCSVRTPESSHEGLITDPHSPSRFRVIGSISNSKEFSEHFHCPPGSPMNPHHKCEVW
Experimental: Solubilized crude membranes were prepared in parallel from CHO/ECE-2 and CHO/ECE-1 cells as described (Xu et al., 1994). For protease inhibitor studies, membranes were prepared without protease inhibitors. Standard reaction mixtures for the ECE-2 assay (50 μl) contained 0.1M 2-[N-morpholino]ethanesulfonic acid (MES) buffer (pH 5.5), 0.5M NaCl, 0.1 μM human big ET-1 and an enzyme fraction. ECE-1 assay reactions contained 0.1M phosphate buffer (pH 6.8) instead of the MES buffer. For the pH profiling and isopeptide selectivity studies, the buffer solution (0.1M) or the substrate (0.1 μM) was substituted as designated. For the inhibitor studies, the reactions were preincubated at 37° C. with protease inhibitor or vehicle for 15 min. Reactions were started by the addition of substrate, and incubated at 37° C. for 30 min in siliconized 0.5-ml microcentrifuge tubes. […] The mixture was then directly assayed for mature ET-1 as described (Suzuki et al., 1989). Duplicate assay wells were used for each enzyme reaction. […] Protein concentrations were determined by the Bradford method (Bio-Rad) using IgG as standard.

[5] = test system: cultured endothelial cells; settings: cited from earlier work
big endothelins = settings: whole animal preparations and isolated perfused tissues; cited from earlier work
ECE-1 [6] = target: T2, ECE-1; settings: high concentrations; Xu et al., 1994; cited from earlier work

T1 sequence (P0DPE2 97-883): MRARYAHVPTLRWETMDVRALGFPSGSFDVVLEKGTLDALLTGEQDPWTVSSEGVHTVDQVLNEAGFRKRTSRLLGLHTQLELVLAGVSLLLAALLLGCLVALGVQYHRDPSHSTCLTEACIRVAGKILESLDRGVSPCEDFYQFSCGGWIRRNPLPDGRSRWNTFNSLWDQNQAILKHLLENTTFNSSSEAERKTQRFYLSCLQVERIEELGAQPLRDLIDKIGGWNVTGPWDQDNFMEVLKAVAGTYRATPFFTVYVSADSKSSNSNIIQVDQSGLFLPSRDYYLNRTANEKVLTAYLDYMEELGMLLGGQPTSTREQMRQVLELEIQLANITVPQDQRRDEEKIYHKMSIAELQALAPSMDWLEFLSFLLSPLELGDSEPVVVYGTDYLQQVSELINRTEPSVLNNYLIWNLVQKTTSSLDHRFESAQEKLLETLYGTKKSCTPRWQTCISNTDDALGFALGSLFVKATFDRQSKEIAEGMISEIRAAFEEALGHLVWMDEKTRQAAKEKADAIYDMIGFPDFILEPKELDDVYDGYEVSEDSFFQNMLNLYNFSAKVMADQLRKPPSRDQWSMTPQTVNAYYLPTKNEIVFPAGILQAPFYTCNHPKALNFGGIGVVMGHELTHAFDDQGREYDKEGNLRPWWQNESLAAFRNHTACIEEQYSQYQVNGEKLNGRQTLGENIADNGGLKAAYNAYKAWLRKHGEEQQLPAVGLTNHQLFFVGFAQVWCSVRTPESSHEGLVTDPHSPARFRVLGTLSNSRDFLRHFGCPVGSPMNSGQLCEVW

## CC(C)C[C@H](NP(=O)(O)O[C@@H]1O[C@@H](C)[C@H](O)[C@@H](O)[C@H]1O)C(=O)N[C@@H](Cc1c[nH]c2ccccc12)C(=O)O [Phosphoramidon]
ECE-2 [1]
  IC50: ~20 µM
ECE-2 [2]
  IC50: 0.004 µM
[3]
  type of inhibition: competitive inhibitor
ECE-1 [4]
  inhibition of ECE-1: inhibited
[5]
  inhibition of secretion of mature ET-1 / processing of endogenous big ET-1 (words): inhibit the secretion of mature ET-1
[5]; listed as phosphoramidon
  inhibition of secretion of mature ET-1 / processing of endogenous big ET-1 (words): inhibited
Big endothelins
  inhibition of vasopressor actions of exogenous big endothelins: inhibited
ECE-1 [6]
  inhibition of big ET-1 conversion in ECE-1/preproET-1 doubly transfected cells: capable of inhibiting the conversion of big ET-1
